In paper PMC4393083, “Antiviral Activity and Possible Mechanism of Action of Constituents Identified in Paeonia lactiflora Root toward Human Rhinoviruses” (PLoS ONE, 2015):
Read-outs that look alike come from different tables or passages of the source.

Tests used:
[1] = system: two HRVs (HRV-2 and HRV-4); experiment: Cytopathic effect inhibition assay, summary over both serotypes; assay type: cell-based, human rhinovirus; settings: Rhinovirus A; range over HRV-2 and HRV-4, HeLa and MRC5 cells; read-out: IC50 toward two HRVs (range)
Procedure: (§1) Monolayers of HeLa and MRC5 cells were seeded onto a 96-well culture plate as stated previously. Subsequently, 90 μL media containing several different concentrations (1–1000 μg/mL) of each test material in DMSO was put into the wells, and then 10 μL of 10×TCID50 of the virus stock was added to produce an appropriate CPE within 2 days after infection. Ribavirin served as a reference control and was similarly prepared. Negative controls consisted of the DMSO solution. Viral inhibition rate (VIR) (%) was calculated according to the formula [21], VIR = (A tV—A cV)/(A cd—A cV) × 100, where A tV is the optical density measured with a given concentration of the test compound in HRV infected cells; A cV is the optical density measured for the control untreated HRV infected cells; A cd is the optical density measured for the control untreated HRV uninfected cells.
(§2) The CC50 and IC50 values were determined using GraphPad Prism 5 software program (GraphPad Software, La Jolla, CA). […] The selectivity index (SI) was determined as the ratio of CC50 to IC50 [23]. All data represent the mean ± SD of duplicate or triplicate samples of three independent experiments. Statistical analyses were carried out using SAS 9.13 program (SAS Institute, Cary, NC). Data from two groups were analyzed by a Student’s t-test, and multiple groups were analyzed by a one-way analysis of variance and Bonferroni multiple comparison post-test.

HRV-4 [2] = experiment: Cytopathic effect inhibition assay (MTT), HRV-4 in MRC5 cells; assay type: cell-based, human rhinovirus; settings: HRV-4 in MRC5 cells
Procedure: as §1, §2

[3] = Cytotoxicity MTT assay in HeLa cells; assay type: cell-based; settings: human, tetrazolium assay, read-out: CC50 (95% CL)
Procedure: (§3) The cytotoxicity of the test materials to two human cell lines was evaluated using an MTT assay described previously by Morgan. In brief, a 10× stock solution of MTT was prepared by adding 5 mg/mL MTT in phosphate-buffered saline (PBS) (pH 7.4). The stock solution was sterile-filtered and stored at −20°C. HeLa and MRC5 cells were seeded onto 96-well culture plates at a density of 3 × 10^4 cells per well for 1 day. The culture medium was removed and the plates with monolayer cells were replaced with media containing several different concentrations (1–1000 μg/mL) of the test materials in dimethylsulfoxide (DMSO). After incubation at 37°C and 5% CO2 for 2 days, the culture plates were then washed once with 200 μL PBS. A volume of 100 μL medium containing 0.05% MTT were added to each well and then incubated for 4 h at the same condition. After then, MTT solution was removed and 150 μL DMSO was added to each well. Finally, the plate was shaken for 15 min to dissolve the purple formazan crystals that had formed. Absorbance was read at 560 nm by using a VersaMax microplate reader (Molecular Devices, Sunnyvale, CA) with a reference absorbance at 670 nm.
as §2, with “Statistical analyses were carried out using SAS 9.13 program (SAS Institute, Cary, NC).” left out

HRV-2 [4] = experiment: Cytopathic effect inhibition assay (MTT), HRV-2 in HeLa cells; assay type: cell-based, human rhinovirus; settings: read-out: IC50 (95% CL) HRV-2
Procedure: as §1, §2

HRV = settings: read-out: IC50 (anti-HRV); cited from earlier work
HRV-4 [5] = experiment: Cytopathic effect inhibition assay (MTT), HRV-4 in HeLa cells; assay type: cell-based, human rhinovirus; settings: Human rhinovirus sp., HRV4, HeLa, read-out: IC50 (95% CL) HRV-4
Procedure: Extraction procedures of air-dried root of P. lactiflora were performed as described previously by Ngan et al.. For isolation of active principles, viral CPE inhibition assay toward HRV-4 in HeLa cell was used. […]. Column fractions were monitored by TLC on silica gel plates developed with chloroform and methanol (7:3 by volume) mobile phase. Fractions with similar R f values on the TLC plates were pooled. Active fractions 4 to 5 (EI, 2.44 g) and 7 (EII, 0.569 g) were obtained. The active fraction EI was rechromatographed on a silica gel column by elution with chloroform and methanol (70:30 by volume) to give nine fractions (each about 450 mL). A preparative HPLC was used for separation of constituents from the active fractions 3 to 5 (0.176 g). The column was a 4.6 mm i.d. × 150 mm Eclipse XDB-C18 (Agilent, Santa Clara, CA) using a mobile phase of methanol and water (3:7 by volume) at a flow rate of 0.5 mL/min. Chromatographic separations were monitored using a UV detector at 260 nm. […]. The three antiviral principles were characterized as paeonol (PA) (1), gallic acid (GA) (2), and 1,2,3,4,6-penta-O-galloyl-β-D-glucopyranose (PGG) (3) (Fig 1) by spectroscopic analyses, including MS and NMR. PA (1): compound 1 was isolated as an antibacterial principle from P. lactiflora root in our previous work, and the spectral data of compound 1 was largely identical to the published data. GA (2) was identified on the basis of the following evidence: white powder. UV (MeOH): λmax nm = 260. FT-IR: v max cm^–1 = 3491–3063 (OH stretch), 1608 (aromatic C = C). […] The interpretations of proton and carbon signals of compound 2 were largely consistent with those of Sakar et al.. PGG (3): compound 3 was isolated as an antibacterial principle from P. lactiflora root in our previous work, and the spectral data of compound 3 was largely identical to the published data.
as §1, §2

[6] = Cytotoxicity MTT assay in MRC5 cells; assay type: cell-based, human; settings: human, tetrazolium assay, read-out: CC50 (95% CL)
Procedure: as §3
as §2, with “Statistical analyses were carried out using SAS 9.13 program (SAS Institute, Cary, NC).” left out

MRC5 cells = experiment: Cytotoxicity MTT assay in MRC5 cells; assay type: cell-based, human
Procedure: as §3
as §2, with “Statistical analyses were carried out using SAS 9.13 program (SAS Institute, Cary, NC).” left out

HRV-2 [7] = experiment: Cytopathic effect inhibition assay (MTT), HRV-2 in MRC5 cells; assay type: cell-based, human rhinovirus; settings: HRV-2 in MRC5 cells
Procedure: as §1, §2

Compound | IC50 (HRV) [µM] | further results
O=C(O)c1cc(O)c(O)c(O)c1 [GA, gallic acid] | ~295 | IC50 [1]: 427 to 448 µM; IC50 (95% CL) HRV-4 (HRV-4 [2]): ineffective; CC50 at 2 days [3]: 1500 µM; IC50 (HRV-2 [4]; Rhinovirus A, HRV2, HeLa): 427 µM; IC50 (HRV-2 [4]): 427 µM; IC50 (HRV-4 [5]): 448 µM; CC50 at 2 days [6]: 218 µM; concentration toxic to cells (MRC5 cells): ≥ 290 µM; IC50 (95% CL) HRV-2 (HRV-2 [7]): ineffective
COc1cc2cc(Oc3ccc4ccc(=O)oc4c3)c(=O)oc2cc1OC [daphnoretin methyl ether] | 97.1 | –
C[C@@H]1CC[C@]2(C(=O)O)CC[C@]3(C)C(=CC[C@@H]4[C@@]5(C)C[C@@H](O)[C@H](OC(=O)/C=C/c6ccc(O)c(O)c6)C(C)(C)[C@@H]5CC[C@]43C)[C@@H]2[C@]1(C)O (relative stereo) [3-O-trans-caffeoyltormentic acid] | 30.7 | –
COc1cc2ccc(=O)oc2c(OC)c1OC [6,7,8-trimethoxycoumarin] | 12 | –
O=c1c(-c2ccc(O)c(O)c2)coc2cc(O[C@@H]3O[C@H](CO)[C@@H](O)[C@H](O)[C@H]3O)cc(O)c12 [orobol 7-O-D-glucoside] | 1.29 to 19.6 | –
C=C1CCC2CC(C(=C)C)C2(C)CCC(C(=C)C(=O)O)CC1CC=C(C)C (stereo not drawn) [raoulic acid] | 0.51 | –
(S)-ribalinine | 83 | –
COc1cc(O)c2c(=O)c(OC)c(-c3ccc(O)c(OC)c3)oc2c1 [4ʹ,5-dihydroxy-3ʹ,3,7-trimethoxyflavone] | 0.29 | –
C/C(=C\COc1ccc2ccc(=O)oc2c1)CC[C@@H]1C(C)(C)[C@H]2CC[C@]1(C)O2 [farnesiferol C] | ~2.61 | –
COc1cc2c(cc1OC)-c1c(OC)c(OC)cc3c1[C@H](C2)N(C)CC3 [glaucine] | 22 | –
C=C1CC[C@@H](O)C(C)(C)C1CC/C(C)=C/COc1ccc2ccc(=O)oc2c1 (stereo partly drawn) [farnesiferol B] | ~2.61 | –
COc1cc2c(c(O)c1OC)c(=O)c1ccccc1n2C [arborinine] | 3.19 | –
